Data taken from patent US10143201B2, “Fungicidal compositions” (Syngenta Crop Protection LLC, priority 2007, dated 2018).

Experiments:
[1] = test system: Cercospora arachidicola (syn. Mycosphaerella arachidis); assay: Fungicidal action against Cercospora arachidicola (brown leaf spot of groundnut), microtiter growth inhibition; type: cell-based; settings: Mycosphaerella arachidis, compound alone
Procedure: Example B8: Fungicidal Action Against Cercospora arachidicola (Syn. Mycosphaerella arachidis), Brown Leaf Spot of Groundnut (Peanut)
(§1) Conidia of the fungus from cryogenic storage are directly mixed into nutrient broth (PDB potato dextrose broth). After placing a (DMSO) solution of the test compounds into a microtiter plate (96-well format) the nutrient broth containing the fungal spores is added. The test plates are incubated at 24 C and the inhibition of growth is evaluated after 7 days.

[2] = test system: Monopraphella nivalis (syn. Microdochium nivale, Fusarium nivale); assay: Fungicidal action against Monopraphella nivalis (snow mould, foot rot of cereals), microtiter growth inhibition; type: cell-based; settings: Microdochium nivale, compound alone
Procedure: Example B9: Fungicidal Action Against Monopraphella nivalis (Syn. Microdochium nivale, Fusarium nivale), Snow Mould, Foot Rot of Cereals
as §1, with “4” for “7”

Phakopsora pachyrhizi = assay: Action against Asian soybean rust, leaf disc test; type: in vivo; settings: 14 days after inoculation
Procedure: Example B-1: Action Against Asian Soybean Rust (Phakopsora pachyrhizi)—Leaf Disc Test
Whole soybean plants (variety brand Williams82) are treated with the recited active ingredients 4 weeks after planting. 1 day after spraying leaf disks are cut from the first trifoliate leaf. Five repetitions at each rate are conducted. The leaf disks are inoculated with Phakopsora pachyrhizi (Asian soybean rust) one day after treatment. Evaluation of the leaf disks is conducted fourteen days after inoculation and the mean percent infestation of the five repetitions is calculated. Standard EC100 formulations are used. The rates of the active ingredients used are given in Table B1 as g active ingredient (a.i.)/ha.

Structure (SMILES) | inhibition at 0.0039 ppm ([1]; 0.0039 ppm, read-out: % activity) [%] | inhibition at 0.0078 ppm ([1]; 0.0078 ppm, read-out: % activity) [%] | inhibition at 0.0156 ppm ([1]; 0.0156 ppm) [%] | inhibition at 0.0313 ppm ([1]; 0.0313 ppm) [%] | inhibition at 0.0313 ppm ([2]; 0.0313 ppm) [%] | inhibition at 0.0625 ppm ([2]; 0.0625 ppm) [%] | inhibition at 0.125 ppm ([2]; 0.1250 ppm) [%] | inhibition at 0.25 ppm ([2]; 0.2500 ppm) [%] | % Control of Phakopsora pachyrhizi (Phakopsora pachyrhizi; 31.25 g a.i./ha) [%] | % Control of Phakopsora pachyrhizi (Phakopsora pachyrhizi; 62.5 g a.i./ha) [%] | % Control of Phakopsora pachyrhizi (Phakopsora pachyrhizi; 125 g a.i./ha) [%] | % Control of Phakopsora pachyrhizi (Phakopsora pachyrhizi; 250 g a.i./ha) [%]
Cn1cc(C(=O)Nc2ccc(F)cc2-c2ccc(Cl)c(Cl)c2)c(C(F)F)n1 [Compound B-5.11, 3-difluoromethyl-1-methyl-1H-pyrazole-4-carboxylic acid (3′,4′-dichloro-5-fluoro-1,1′-biphenyl-2-yl)-amide] | 0 | 0 | 20 | 70 | 0 | 0 | 0 | 20 | – | – | – | –
Cn1cc(C(=O)Nc2cccc3c2C2CCC3C2=C(Br)Br)c(C(F)F)n1 (stereo not drawn) [Compound A-1.3, 3-difluoromethyl-1-methyl-1H-pyrazole-4-carboxylic acid (9-dibromomethylidene-benzonorbornene-5-yl)amide] | – | – | – | – | – | – | – | – | 36 | 36 | 54 | 93
